Assays:
Type in all cases: in vivo
[1] = tested on: Brassica campestris L.; assay: Test Example 4: effect on crop by application to foliage (diluvial soil, plastic box); details: application to foliage, 320 g/ha
Outline: (§1)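 Scores run from 0 (herbicidal ratio ≤5%) to 5 (≥90%, almost fully withered) and were assessed three weeks after foliar spraying. Seedlings had been raised for 14 days at 25-30° C in sterilized diluvial soil before treatment, with the emulsion diluted in water to the stated g/ha dose.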

[2] = tested on: Triticum aestivum; assay: as above; details: application to foliage, 320 g/ha
Outline: as §1

[3] = tested on: Beta vulgaris ssp. vulgaris; assay: as above; details: application to foliage, 320 g/ha
Outline: as §1

[4] = tested on: directly sowed Oryza sativa; assay: as above; details: application to foliage, 320 g/ha
Outline: as §1

[5] = tested on: Zea mays; assay: as above; details: application to foliage, 320 g/ha
Outline: as §1

[6] = tested on: Glycine max; assay: as above; details: application to foliage, 320 g/ha
Outline: as §1

[7] = tested on: Echinochloa crus-galli var. crus-galli; assay: Test Example 3: herbicidal effect by application to foliage (Wagner pot, water depth 0.1-0.5 cm); details: Nineteenth Table; application to foliage; application herbicide amount 320 g/ha
From the text: (§2) 5 Herbicidal ratio of 90% or more (almost completely withered) 4 Herbicidal ratio of 70% or more and less than 90% 3 Herbicidal ratio of 40% or more and less than 70% 2 Herbicidal ratio of 20% or more and less than 40% 1 Herbicidal ratio of 5% or more and less than 20% 0 Herbicidal ratio of 5% or less (almost no effect) [Test Example 3] Herbicidal Effect Test by Application to Foliage After alluvial soil was placed into 1/10000 are of Wagner pot, water was poured and mixed to form a condition having a water depth of 0.1 cm to 0.5 cm. Seeds of Echinochloa crus-galli var. crus-galli, Leptochloa chinensis, Cyperus difformis, and Oryza sativa were sowed and the pot was placed in the greenhouse of 25° C. to 30° C. to grow the plants. After the plants were grown for 14 days, the emulsion agent containing the compound of the present invention prepared in accordance with Formulation Example 2 was diluted with water so as to be a predetermined herbicide amount and the diluted compound was uniformly applied to a stem and leaf part with a small-size spray. Three weeks after the herbicide application, effects on each plant were investigated in accordance with the criteria of Test Example 1. A: Echinochloa oryzicola Vasing., B: Scirpus juncoides, C: Monochoria vaginalis, D: Leptochloa chinensis, E: Cyperus difformis, F: Digitaria ciliaris, G: Setaria viridis, H: Echinochloa crus-galli var. crus-galli, I: Avena fatua, J: Alopecurus myosuroides, K: Lolium multiflorum Lam., L: Apera spica-venti., M: Abutilon theophrasti, N: Amaranthus retroflexus, O: Chenopodium album, P: Stellaria media, Q: Galium spurium, R: Veronica persica, a: transplanted Oryza sativa, b: directly sowed Oryza sativa, c: Zea mays, d: Glycine max, e: Triticum aestivum, f: Beta vulgaris ssp. vulgaris, and g: Brassica campestris L. The application herbicide amount (g/ha) means an amount that a concentration is adjusted so that, when an application amount is converted into per hectare (1 ha), the herbicide is applied by the number of grams (g) of the described value.

[8] = tested on: Leptochloa chinensis; assay: as above; details: Nineteenth Table; application to foliage; application herbicide amount 320 g/ha
From the text: as §2

[9] = tested on: Cyperus difformis; assay: as above; details: Nineteenth Table; application to foliage; application herbicide amount 320 g/ha
From the text: as §2

[10] = tested on: Abutilon theophrasti; assay: Test Example 4: herbicidal effect by application to foliage (diluvial soil, plastic box); details: application to foliage, 320 g/ha
From the text: (§3) 5 Herbicidal ratio of 90% or more (almost completely withered) 4 Herbicidal ratio of 70% or more and less than 90% 3 Herbicidal ratio of 40% or more and less than 70% 2 Herbicidal ratio of 20% or more and less than 40% 1 Herbicidal ratio of 5% or more and less than 20% 0 Herbicidal ratio of 5% or less (almost no effect) [Test Example 4] Herbicidal Effect Test by Application to Foliage Sterilized diluvial soil was placed in a plastic box having a length of 21 cm, a width of 13 cm, and a depth of 7 cm. Each of the seeds of Digitaria ciliaris, Setaria viridis, Echinochloa crus-galli var. crus-galli, Avena fatua, Alopecurus myosuroides, Lolium multiflorum Lam., Apera spica-venti., Abutilon theophrasti, Amaranthus retroflexus, Chenopodium album, Stellaria media, Galium spurium, Veronica persica, Zea mays, Glycine max, Oryza sativa, Triticum aestivum, Beta vulgaris ssp. vulgaris, and Brassica campestris L. was sowed in a spot-like manner and was covered with the soil of about 1.5 cm thick. Thereafter, the plants were grown in the greenhouse of 25° C. to 30° C. After the plants were grown for 14 days, the emulsion agent containing the compound of the present invention prepared in accordance with Formulation Example 2 was diluted with water so as to be a predetermined herbicide amount and the diluted compound was uniformly applied to a stem and leaf part with a small-size spray. Three weeks after the herbicide application, effects on each plant were investigated in accordance with the criteria of Test Example 1. A: Echinochloa oryzicola Vasing., B: Scirpus juncoides, C: Monochoria vaginalis, D: Leptochloa chinensis, E: Cyperus difformis, F: Digitaria ciliaris, G: Setaria viridis, H: Echinochloa crus-galli var. crus-galli, I: Avena fatua, J: Alopecurus myosuroides, K: Lolium multiflorum Lam., L: Apera spica-venti., M: Abutilon theophrasti, N: Amaranthus retroflexus, O: Chenopodium album, P: Stellaria media, Q: Galium spurium, R: Veronica persica, a: transplanted Oryza sativa, b: directly sowed Oryza sativa, c: Zea mays, d: Glycine max, e: Triticum aestivum, f: Beta vulgaris ssp. vulgaris, and g: Brassica campestris L. The application herbicide amount (g/ha) means an amount that a concentration is adjusted so that, when an application amount is converted into per hectare (1 ha), the herbicide is applied by the number of grams (g) of the described value.

[11] = tested on: Galium spurium; assay: as above; details: application to foliage, 320 g/ha
From the text: as §3

[12] = tested on: Chenopodium album; assay: as above; details: application to foliage, 320 g/ha
From the text: as §3

[13] = tested on: Amaranthus retroflexus; assay: as above; details: application to foliage, 320 g/ha
From the text: as §3

[14] = tested on: Alopecurus myosuroides; assay: as above; details: application to foliage, 320 g/ha
From the text: as §3

[15] = tested on: Echinochloa crus-galli var. crus-galli; assay: as above; details: application to foliage, 320 g/ha
From the text: as §3

[16] = tested on: Lolium multiflorum Lam.; assay: as above; details: application to foliage, 320 g/ha
From the text: as §3

[17] = tested on: Digitaria ciliaris; assay: as above; details: application to foliage, 320 g/ha
From the text: as §3

[18] = tested on: Avena fatua; assay: as above; details: application to foliage, 320 g/ha
From the text: as §3

[19] = tested on: Stellaria media; assay: as above; details: application to foliage, 320 g/ha
From the text: as §3

[20] = tested on: Apera spica-venti.; assay: as above; details: application to foliage, 320 g/ha
From the text: as §3

[21] = tested on: Setaria viridis; assay: as above; details: application to foliage, 320 g/ha
From the text: as §3

[22] = tested on: Veronica persica; assay: as above; details: application to foliage, 320 g/ha
From the text: as §3

## CCOC(=O)Cn1nnnc1NC(=O)c1ccc(C(F)(F)F)n2c(C(C)C)nnc12 [2-092]
[1]
  effect on crop, g (Brassica campestris L.): 0 (Herbicidal ratio of 5% or less (almost no effect))
[2]
  effect on crop, e (Triticum aestivum): 0 (Herbicidal ratio of 5% or less (almost no effect))
[3]
  effect on crop, f (Beta vulgaris ssp. vulgaris): 3 (Herbicidal ratio of 40% or more and less than 70%)
[4]
  effect on crop, d (directly sowed Oryza sativa): 1 (Herbicidal ratio of 5% or more and less than 20%)
[5]
  effect on crop, b (Zea mays): 0 (Herbicidal ratio of 5% or less (almost no effect))
[6]
  effect on crop, c (Glycine max): 0 (Herbicidal ratio of 5% or less (almost no effect))
[7]
  H (herbicidal effect grade): 2 (Herbicidal ratio of 20% or more and less than 40%)
[8]
  D (herbicidal effect grade): 3 (Herbicidal ratio of 40% or more and less than 70%)
[9]
  E (herbicidal effect grade): 2 (Herbicidal ratio of 20% or more and less than 40%)
[10]
  herbicidal effect, M (Abutilon theophrasti): 1 (Herbicidal ratio of 5% or more and less than 20%)
[11]
  herbicidal effect, Q (Galium spurium): 1 (Herbicidal ratio of 5% or more and less than 20%)
[12]
  herbicidal effect, O (Chenopodium album): 3 (Herbicidal ratio of 40% or more and less than 70%)
[13]
  herbicidal effect, N (Amaranthus retroflexus): 1 (Herbicidal ratio of 5% or more and less than 20%)
[14]
  herbicidal effect, J (Alopecurus myosuroides): 0 (Herbicidal ratio of 5% or less (almost no effect))
[15]
  herbicidal effect, H (Echinochloa crus-galli var. crus-galli): 2 (Herbicidal ratio of 20% or more and less than 40%)
[16]
  herbicidal effect, K (Lolium multiflorum Lam.): 0 (Herbicidal ratio of 5% or less (almost no effect))
[17]
  herbicidal effect, F (Digitaria ciliaris): 0 (Herbicidal ratio of 5% or less (almost no effect))
[18]
  herbicidal effect, I (Avena fatua): 1 (Herbicidal ratio of 5% or more and less than 20%)
[19]
  herbicidal effect, P (Stellaria media): 3 (Herbicidal ratio of 40% or more and less than 70%)
[20]
  herbicidal effect, L (Apera spica-venti.): 0 (Herbicidal ratio of 5% or less (almost no effect))
[21]
  herbicidal effect, G (Setaria viridis): 0 (Herbicidal ratio of 5% or less (almost no effect))
[22]
  herbicidal effect, R (Veronica persica): 1 (Herbicidal ratio of 5% or more and less than 20%)

— patent US9708314B2, “Heterocyclic amide compound” (NISSAN CHEMICAL INDUSTRIES, LTD., priority 2013, dated 2017)
